The values that follow come from paper PMC7461584, “N-(2′-Hydroxyphenyl)-2-Propylpentanamide (HO-AAVPA) Inhibits HDAC1 and Increases the Translocation of HMGB1 Levels in Human Cervical Cancer Cells” (International Journal of Molecular Sciences, 2020).

Structures are written as SMILES. Values joined by “and” are separate entries in the source; they are usually repeats but may differ in a detail not shown here. Equal entries are not always repeated. “Also recorded” adds a separate entry of the source. Some results are limits rather than exact numbers.

One series deals with cervical cancer cells. Also on record: method as in PMID 26942921. The settings on record: ref [25], cited from earlier work.
For a further series, the system named is HMGB1 in SiHa cells. Nature of the series: Localization of HMGB1 by confocal microscopy. Format: cell-based, human. The settings on record: 12 h; for HMGB1 fluorescence intensity: vs DMSO vehicle. As for the experimental part: A total of 20 × 10^3 cells per well were added to 24-well plates and incubated for 24 h in DMEM with FBS. Then, the cells were washed with phosphate buffered saline (PBS 1X). The groups received the following treatments: VPA at 1.4 and 0.35 mM, HO-AAVPA at 0.2 and 0.005 mM, vehicle (DMSO 0.1%), and incubated for 12 h. After incubation, the cells were fixed with paraformaldehyde (PFA 4%) at 37 °C for 20 min and permeabilized (PBS Tween-Triton 0.5%) for 5 min. Subsequently, the cells were washed and the primary antibody, anti-HMGB1 (GTX101277, GeneTex, Alton Pkwy Irvine, CA, USA), was added at a ratio of 1:1000 and incubated overnight. The secondary antibody, donkey anti-rabbit IgG H&L (Alexa Fluor 647, Thermo Fisher Scientific, México City, Mexico), was added at a ratio of 1:1000 and incubated at 4 °C for 4 h. Finally, the slides were washed with PBS and mounted with Vectashield (Mounting Laboratories, Inc. Burlingame, CA, USA).
The images were collected and analyzed with an Axioskop 2 mot plus confocal fluorescence microscope (Carl Zeiss, Mexico City, Mexico) at EC Plan-Neofluar 20×–40×/0.5 Ph2: LP 650, LP 505.

Details of series [1]: method as in PMID 32387339, PMID 30236821, PMID 3146521. The settings on record: rat model; ref [19],[20],[21]; cited from earlier work.
Series [2] has as its system ROS (O2−·) levels in SiHa cells. Nature of the series: Quantification of superoxide anion by electronic paramagnetic resonance. Format: cell-based, human. The settings on record: 48 h. How it is done: The SiHa cells (500 × 10^3) were seeded in a […] dish and kept at 37 °C in a humidified atmosphere with 5% CO2 until they reached 70% confluence. After, the cells were treated with two different concentrations of VPA and HO-AAVPA (1.4 and 0.2 mM) and maintained for 48 h, the experiment was performed in triplicate and used as a control for data comparison with the SiHa cells treated only with medium. Next, the cells were trypsinized and centrifuged at 3000 rpm for 10 min, and the cell pellet was treated with the radical scavenger CM-H (1 hydroxy-3-methoxycarbonyl-2,2, 5,5-tetramethyl pyrrolidine) diluted in Krebs buffer (99 mM NaCl, 4.69 mM KCl, 2.5 mM CaCl2 × 2H2O, 1.2 mM MgSO4 × 7 H2O, 2.5 mM NaHCO3, 1.03 mM KH2PO4, 5.6 mM D-Glucose, and 20 mM Na-HEPES) with sodium diethyldithiocarbamate trihydrate (DETEC; 5 μM) and deferoxamine methane sulfonate salt (DF 25 μM) at a 89:3:8% v/v ratio of Krebs buffer: DETEC:DF. The stock solution of CMH (10 mM) was used to dilute each sample to 0.5 mM. The CM-H solution and the sample preparation were processed inside a nitrogen atmosphere chamber. The samples containing CM-H were incubated for 30 min at 37 °C with constant shaking. After the samples were centrifuged at 3000 rpm for 15 min, 50 µL of the supernatant was taken up with capillaries (Corning, Glendale, CA, USA) inside the nitrogen chamber, and each of the capillaries were sealed on both sides to determine the EPR measurements.
The measurements of O2^−· formation were performed in a Bruker e-scan spectrometer with the following parameters recorded: magnetic field 3490 G, window: 60 G, amplitude: 1.5 G, gain: 56.4, power: 0.0155 mW; and frequency: 9.743 GHz. WinEPR Acquisition software was used to analyze the results. The intensity of each sample was measured and normalized to the cell number for each sample. Finally, the result was expressed as the intensity for 10,000 cells.

The target of another series is T1, HDAC1 (Homo sapiens, UniProt Q13547).
T1 construct: purchased Enzo Life Sciences BML-AK511
Nature of the series: Fluor de LYS HDAC1 inhibitory activity assay. Format: biochemical. Conditions: 250 ng/well, 37 °C, 5 µM substrate; mean ± SE.

The next series concerns the target T2, HDAC6 (Homo sapiens, UniProt Q9UBN7).
T2 construct: purchased Enzo Life Sciences BML-AK516
T2 sequence (Q9UBN7 1-1215): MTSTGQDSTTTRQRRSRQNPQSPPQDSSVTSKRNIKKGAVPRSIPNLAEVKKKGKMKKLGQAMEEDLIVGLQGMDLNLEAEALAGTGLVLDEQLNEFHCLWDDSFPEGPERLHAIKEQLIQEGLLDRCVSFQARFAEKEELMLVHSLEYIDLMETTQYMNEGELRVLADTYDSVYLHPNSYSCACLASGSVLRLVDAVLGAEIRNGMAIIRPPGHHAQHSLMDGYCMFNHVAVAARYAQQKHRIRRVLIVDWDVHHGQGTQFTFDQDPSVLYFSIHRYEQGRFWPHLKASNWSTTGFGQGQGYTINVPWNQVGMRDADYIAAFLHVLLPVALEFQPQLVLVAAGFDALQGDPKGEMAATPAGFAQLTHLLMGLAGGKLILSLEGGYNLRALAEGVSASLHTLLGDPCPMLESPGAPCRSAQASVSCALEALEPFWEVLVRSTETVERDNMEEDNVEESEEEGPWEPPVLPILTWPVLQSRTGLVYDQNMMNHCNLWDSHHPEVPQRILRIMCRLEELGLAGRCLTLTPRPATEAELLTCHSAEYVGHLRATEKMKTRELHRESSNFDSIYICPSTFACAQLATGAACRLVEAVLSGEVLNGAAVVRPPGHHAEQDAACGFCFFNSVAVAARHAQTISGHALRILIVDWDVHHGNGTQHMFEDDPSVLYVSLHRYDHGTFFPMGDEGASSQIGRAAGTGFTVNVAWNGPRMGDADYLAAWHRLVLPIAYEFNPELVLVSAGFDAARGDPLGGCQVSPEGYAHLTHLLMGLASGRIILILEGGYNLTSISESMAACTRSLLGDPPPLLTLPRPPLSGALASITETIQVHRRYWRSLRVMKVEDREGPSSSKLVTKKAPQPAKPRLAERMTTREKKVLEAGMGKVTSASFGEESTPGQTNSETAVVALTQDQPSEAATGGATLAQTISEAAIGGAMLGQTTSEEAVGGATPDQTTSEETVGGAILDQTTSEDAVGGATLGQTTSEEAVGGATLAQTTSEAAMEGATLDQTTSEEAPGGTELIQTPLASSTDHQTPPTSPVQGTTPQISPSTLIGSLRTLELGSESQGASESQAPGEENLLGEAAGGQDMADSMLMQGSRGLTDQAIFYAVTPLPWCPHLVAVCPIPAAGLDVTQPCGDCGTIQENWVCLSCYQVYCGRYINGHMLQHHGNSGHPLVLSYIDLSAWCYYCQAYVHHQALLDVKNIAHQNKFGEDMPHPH
Briefly: Fluor de LYS HDAC6 inhibitory activity assay. Format: biochemical.

The next series concerns SiHa cells. Briefly: Cell viability by MTT assay. The settings on record: 48 h. Format: cell-based, human. As for the experimental part: (§1) SiHa cells were kindly donated by Dr. Nicolás Villegas Sepulveda from the Department of Molecular Biomedicine, […], México. SiHa cells were cultured in Dulbecco’s modified Eagle’s medium (DMEM Gibco, Life Technologies, Invitrogen, Sigma-Aldrich Co., Toluca City Mexico), supplemented with 10% fetal bovine serum (FBS, Biowest, Kansas City, MO, USA) and antibiotic and antimycotic agents (Gibco, Fisher Scientific UK Ltd, Loughborough, UK). The cultures were kept at 37 °C in a humidified atmosphere with 5% CO2.
(§2) After seeding 10 × 10^3 cells per well in transparent 96-well plates, the cells were incubated for 24 h in DMEM medium with FBS. Then, the cells were incubated with different concentrations of HO-AAVPA (0.5, 1.0, 1.5, 2.0, and 2.5 mM) and VPA (0.625, 1.25, 2.5, 5.0, and 7.5 mM). After 48 h of incubation, the supernatant was removed. Then, 20 μL of MTT solution (0.5 mg/mL) in buffer was added, and the cells were incubated at 37 °C for 4 h. After the MTT solution was removed from all the wells, the formazan salts were solubilized with 100 μL of DMSO, and the absorbance of each well was read at 550 nm on a spectrophotometer (Multiskan EX Microplate Photometer, Thermo Scientific, Mexico).

Series [3] can be described thus: Cell viability by MTT assay. The format is cell-based, human. The settings on record: human, SiHa cells, at 2.5 mM. As for the experimental part: as §1, §2
The next series deals with T3, HDAC8 (Homo sapiens, UniProt Q9BY41).
T3 construct: purchased Enzo Life Sciences BML-AK518
T3 sequence (Q9BY41 1-377): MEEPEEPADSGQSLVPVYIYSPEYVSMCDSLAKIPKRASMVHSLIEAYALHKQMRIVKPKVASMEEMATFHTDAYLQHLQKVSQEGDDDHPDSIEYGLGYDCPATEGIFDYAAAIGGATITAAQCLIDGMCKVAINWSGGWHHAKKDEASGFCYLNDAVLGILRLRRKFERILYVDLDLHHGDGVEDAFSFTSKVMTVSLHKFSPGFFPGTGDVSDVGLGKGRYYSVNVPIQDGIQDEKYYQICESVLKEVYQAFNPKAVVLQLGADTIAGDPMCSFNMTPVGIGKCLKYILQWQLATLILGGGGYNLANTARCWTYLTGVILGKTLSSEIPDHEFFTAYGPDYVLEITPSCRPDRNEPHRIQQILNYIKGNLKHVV
Briefly: Fluor de LYS HDAC8 inhibitory activity assay. The format is biochemical.

T1 sequence (Q13547 whole entry): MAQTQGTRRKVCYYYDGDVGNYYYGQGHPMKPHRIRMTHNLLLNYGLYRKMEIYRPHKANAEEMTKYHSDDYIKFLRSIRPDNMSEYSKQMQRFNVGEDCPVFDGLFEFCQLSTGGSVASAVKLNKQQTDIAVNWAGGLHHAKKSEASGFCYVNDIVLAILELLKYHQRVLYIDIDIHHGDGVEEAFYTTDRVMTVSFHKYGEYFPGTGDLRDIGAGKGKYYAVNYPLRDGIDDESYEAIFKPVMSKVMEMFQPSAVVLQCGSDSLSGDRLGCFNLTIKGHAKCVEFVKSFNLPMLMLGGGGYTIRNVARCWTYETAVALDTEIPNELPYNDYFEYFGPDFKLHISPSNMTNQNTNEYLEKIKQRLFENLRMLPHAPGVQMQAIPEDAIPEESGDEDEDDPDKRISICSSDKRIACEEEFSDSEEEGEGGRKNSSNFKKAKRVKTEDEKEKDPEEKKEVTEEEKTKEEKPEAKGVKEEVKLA

Take `CCCC(CCC)C(=O)O` [VPA, valproic acid, reference compound]: the “concentration that did not produce significant effect on the proliferation” value in the series on cervical cancer cells (cervical cancer cells) is 1 mM. Besides, the “concentration with cytotoxic effects” value in the series on cervical cancer cells (other studies) is around 3000 µM. In the series with HMGB1 in SiHa cells (HO-AAVPA 0.2 mM, VPA 1.4 mM), the HMGB1 localization result was “HMGB1 is expressed in a larger amount in the nucleus; also recorded: observed predominantly in the nucleus” and the HMGB1 fluorescence intensity result is “increase in the fluorescence was more; also recorded: significant increase of HMGB1”. In [1], the half-life was 1 h. Also, in series [2] (0.2 mM), the “ROS (O2−·) production” value is on record as “did not have a significant difference in ROS production”. The “ROS (O2−·) production” value in series [2] (1.4 mM) is listed as “did not have a significant difference in ROS production”.

For the molecule `CCCC(CCC)C(=O)Nc1ccccc1O` [HO-AAVPA, N-(2′-hydroxyphenyl)-2-propylpentanamide], the IC50 against HDAC1 was 153 µM and 154 µM; against HDAC6 (400 ng/well, 37 °C, 12 µM substrate, mean ± SE) it was above 1000 µM; in the series on SiHa cells (Homo sapiens, SiHa, MTT), 1600 µM; against HDAC8 (1 U/well, 30 °C, 50 µM substrate, mean ± SE), above 1000 µM. Also, the HMGB1 localization result in the series with HMGB1 in SiHa cells (HO-AAVPA 0.2 mM, VPA 1.4 mM) was “high amount of HMGB1 in the cytoplasm than in the nucleus; also recorded: greater intensity of translocation of HMGB1 from the nucleus to the cytoplasm”; in the series on HMGB1 in SiHa cells (low concentrations: HO-AAVPA 0.005 mM, VPA 0.35 mM), “more HMGB1 in the cytoplasm than VPA”. In addition, in the series on HMGB1 in SiHa cells (HO-AAVPA 0.2 mM, VPA 1.4 mM), the HMGB1 fluorescence intensity entry is on record as “increase in the fluorescence was more; also recorded: significant increase of HMGB1; also recorded: statistically higher”. Also, the “inhibitory activity on HDAC6” value against HDAC6 (tested at 1-1000 µM) is “no inhibitory activity; also recorded: no inhibition was observed”. The half-life in series [1] is 4 h. Further, in the series with SiHa cells (concentration-dependent), the “concentration causing cell death” value is on record as at least 1 mM. The molecule further yielded a viability at 48 h, 2.5 mM in series [3] of around 25%. Further, the “inhibitory activity on HDAC8” value against HDAC8 (tested at 1-1000 µM) is listed as “no inhibitory activity; also recorded: no inhibition was observed”. Further, the “ROS (O2−·) production” value in [2] (0.2 mM) is reported as “slightly lower, but still higher than the control”; in series [2] (1.4 mM) it was “ROS production was greater; also recorded: increased”.
